This is an account of results in patent publication US9737526B2, “Methods for treating Parkinson's disease” (INNOTESTO BVBA, priority 2012, dated 2017).

Values joined by “and” are separate entries in the source; they are usually repeats but may differ in a detail not shown here. Equal entries are not always repeated. Structures can show the parent of a compound that is named as a salt. Where two headings read alike, the source gives them in different places.

Data set [1] concerns Parkinson's disease subjects. Particulars: cited from earlier work; for time to peak benefit: nine Parkinson's disease subjects.
The conditions of data set [2]: water; also printed as 1% w/w; cited from earlier work.
A short description of data set [3]: Solubilities of constituents in non-aqueous solvents. The data set is classed as physicochemical. The conditions noted are these: organic solvent or mixture. How it is done:
In a series of experiments, the solubilities of several constituents that may be used in the solution of the present invention were measured: […]

Data set [4] relates to ciliated respiratory tissue. The experiment in a line: Effect on ciliary beat frequency (CBF) of ciliated tissue, rinsing with Locke-Ringer solution after 15 minutes. The conditions noted are these: for reversibility of effect on CBF: rinsing with LR after 15 minutes. It is filed as cell-based. How it is done: Disclosed are in vitro experiments, according to a previously published method (Merkus et al, 2001), describing the effect of four different solubilizers [25% propylene glycol, 15% glycerol, 25% polyethylene glycol 400 and 5% povidone], dissolved in a Locke-Ringer solution, on the ciliary beat frequency (CBF) of ciliated tissue. […] However, after rinsing with a pure Locke-Ringer solution, the effects on CBF appeared to be completely reversed within 20 minutes.
No ciliary beat frequency could be measured any more. […] Obviously the ciliated cells have been irreversibly damaged by the extreme hyperosmolar concentration of 50% propylene glycol. […] Thus, a nasal formulation containing a drug like apomorphine, dissolved in 50% or more (v/v) propylene glycol, is not a viable option, because it has to be administered in Parkinson's disease on a regular basis, for instance daily or several times per day or per week. On the other hand, such a high concentration of propylene glycol is needed to solubilise sufficient apomorphine (several mg per 0.1 ml) to treat a patient with off-periods in Parkinson's disease.
FIG. 1 is a graph showing the effect of 10% (v/v) propylene glycol (closed circles) or control (open circles) on ciliary beat frequency (CBF) of ciliated respiratory tissue. After 15 minutes contact with 10% (v/v) propylene glycol, tissue is rinsed with pure Locke-Ringer (LR) solution.
FIG. 2 is a graph showing the effect of 25% (v/v) propylene glycol (closed circles) or control (open circles) on ciliary beat frequency (CBF) of ciliated respiratory tissue. After 15 minutes contact with 25% (v/v) propylene glycol, tissue is rinsed with pure Locke-Ringer (LR) solution.
FIG. 3 is a graph showing the effect of 50% (v/v) propylene glycol (closed circles) or control (open circles) on ciliary beat frequency (CBF) of ciliated respiratory tissue. After 15 minutes contact with 50% (v/v) propylene glycol, tissue is rinsed with pure Locke-Ringer (LR) solution.
After 15 minutes contacts with 10% (v/v) propylene glycol, tissue is rinsed with pure Locke-Ringer (LR) solution.
After 15 minute contacts with 25% (v/v) propylene glycol, tissue is rinsed with pure Locke-Ringer (LR) solution.
After 15 minute contacts with 50% (v/v) propylene glycol, tissue is rinsed with pure Locke-Ringer (LR) solution.

For data set [5], the system named is ciliated respiratory tissue. Particulars: 25% propylene glycol, 15% glycerol, 25% polyethylene glycol 400, 5% povidone in Locke-Ringer solution (WO2005/067893); cited from earlier work.
Data set [6] is described as follows: Stability experiments using ultraperformance liquid chromatography (UPLC). It is filed as physicochemical. The source says:
In stability experiments using ultraperformance liquid chromatography (UPLC) we confirmed that, in accordance with the scientific literature, apomorphine hydrochloride in aqueous solutions is not stable. It is quickly decomposed on storage.

The mark [7] stands for this setting: solvent ethanol, read-out: solubility in ethanol.
Where [8] appears, read: solvent propylene glycol, read-out: solubility in propylene glycol.
[9] abbreviates: 10% propylene glycol in Locke-Ringer solution, time 0 min.
[10] abbreviates: 10% propylene glycol in Locke-Ringer solution, time 5 min.
[11] abbreviates: 10% propylene glycol in Locke-Ringer solution, time 10 min.
Setting [12] is: 10% propylene glycol in Locke-Ringer solution, time 15 min.
[13] abbreviates: 10% propylene glycol, time 20 min, after rinsing with LR at 15 min.
[14] abbreviates: 10% propylene glycol, time 30 min, after rinsing with LR at 15 min.
Setting [15] is: 10% propylene glycol, time 40 min, after rinsing with LR at 15 min.
[16] abbreviates: 10% propylene glycol, time 50 min, after rinsing with LR at 15 min.
Setting [17] is: 10% propylene glycol, time 60 min, after rinsing with LR at 15 min.
Where [18] appears, read: 25% propylene glycol in Locke-Ringer solution, time 0 min.
The mark [19] stands for this setting: 25% propylene glycol in Locke-Ringer solution, time 15 min.
Setting [20] is: 25% propylene glycol, time 20 min, after rinsing with LR at 15 min.
[21] abbreviates: 25% propylene glycol, time 30 min, after rinsing with LR at 15 min.
Setting [22] is: 25% propylene glycol, time 40 min, after rinsing with LR at 15 min.
Where [23] appears, read: 25% propylene glycol, time 50 min, after rinsing with LR at 15 min.
Where [24] appears, read: 25% propylene glycol, time 60 min, after rinsing with LR at 15 min.
[25] abbreviates: 50% propylene glycol in Locke-Ringer solution, time 0 min.
The mark [26] stands for this setting: 50% propylene glycol in Locke-Ringer solution, time 5 min.
Setting [27] is: 50% propylene glycol in Locke-Ringer solution, time 10 min.
Where [28] appears, read: 50% propylene glycol in Locke-Ringer solution, time 15 min.
The mark [29] stands for this setting: 50% propylene glycol, time 20 min, after rinsing with LR at 15 min.
Setting [30] is: 50% propylene glycol, time 30 min, after rinsing with LR at 15 min.
Where [31] appears, read: 50% propylene glycol, time 40 min, after rinsing with LR at 15 min.
Where [32] appears, read: 50% propylene glycol, time 50 min, after rinsing with LR at 15 min.
The mark [33] stands for this setting: 50% propylene glycol, time 60 min, after rinsing with LR at 15 min.

Consider `CN1CCc2cccc3c2[C@H]1Cc1ccc(O)c(O)c1-3` [apomorphine], for which the “time to peak benefit” value is 21 min in data set [1] (3 mg apomorphine subcutaneous injection) and above 40 min in data set [1] (30 mg apomorphine sublingual tablets). The “stomatitis on chronic use” value in data set [1] (chronic use of the sublingual formulation) is “severe stomatitis in half the subjects”. Also, the aqueous solubility result in data set [2] is given as “about 10 mg/ml”.
Turning to `O=C1NS(=O)(=O)c2ccccc21.[Na]` [Saccharin sodium], the results for the solubility in data set [3] (setting [7]) and in data set [3] (setting [8]) were 20 mg/mL and 250 mg/mL, respectively.
With `CC(O)CO` (stereo not shown) [propylene glycol], the “CBF (% of initial value), Mean” value in data set [4] (setting [9]) is recorded as 100 % of initial value; in data set [4] (setting [10]), 54 % of initial value; in data set [4] (setting [11]) it was 54 % of initial value; in data set [4] (setting [12]) it was 50 % of initial value; in data set [4] (setting [13]), 98 % of initial value; in data set [4] (setting [14]), 97 % of initial value. Further, the “CBF (% of initial value), Mean” value in data set [4] (setting [15]) is 96 % of initial value; in data set [4] (setting [16]) it was 95 % of initial value; in data set [4] (setting [17]), 94 % of initial value; in data set [4] (setting [18]), 100 % of initial value; in data set [4] (25% propylene glycol in Locke-Ringer solution, time 5 min), 11 % of initial value; in data set [4] (25% propylene glycol in Locke-Ringer solution, time 10 min), 3 % of initial value. In addition, the “CBF (% of initial value), Mean” value in data set [4] (setting [19]) is reported as 0 % of initial value; in data set [4] (setting [20]) it was 80 % of initial value; in data set [4] (setting [21]) it was 86 % of initial value; in data set [4] (setting [22]) it was 97 % of initial value; in data set [4] (setting [23]), 98 % of initial value; in data set [4] (setting [24]), 97 % of initial value. In addition, the “CBF (% of initial value), Mean” value is reported as 100 % of initial value in data set [4] (setting [25]); 0 % of initial value in data set [4] (setting [26]); 0 % of initial value in data set [4] (setting [27]); 0 % of initial value in data set [4] (setting [28]); 0 % of initial value in data set [4] (setting [29]); 0 % of initial value in data set [4] (setting [30]). Also, the “CBF (% of initial value), Mean” value in data set [4] (setting [31]), in data set [4] (setting [32]) and in data set [4] (setting [33]) was 0 % of initial value in each case. Moreover, the “CBF (% of initial value), single experiments” value in data set [4] (setting [9]) was 100 % of initial value; in data set [4] (setting [10]) it was 46 % of initial value and 58 % of initial value and 56 % of initial value and 51 % of initial value and 60 % of initial value; in data set [4] (setting [11]), 50 % of initial value and 55 % of initial value and 63 % of initial value and 45 % of initial value; in data set [4] (setting [12]), 57 % of initial value and 52 % of initial value and 43 % of initial value and 51 % of initial value and 45 % of initial value; in data set [4] (setting [13]), 91 % of initial value and 92 % of initial value and 118 % of initial value and 110 % of initial value and 76 % of initial value; in data set [4] (setting [14]), 94 % of initial value and 87 % of initial value and 110 % of initial value and 99 % of initial value and 93 % of initial value. The “CBF (% of initial value), single experiments” value was 84 % of initial value and 91 % of initial value and 109 % of initial value and 102 % of initial value and 93 % of initial value in data set [4] (setting [15]); 82 % of initial value and 103 % of initial value and 106 % of initial value and 99 % of initial value and 86 % of initial value in data set [4] (setting [16]); 85 % of initial value and 94 % of initial value and 106 % of initial value and 99 % of initial value and 84 % of initial value in data set [4] (setting [17]); 100 % of initial value in data set [4] (setting [18]); 0 % of initial value in data set [4] (setting [19]); 86 % of initial value and 72 % of initial value and 85 % of initial value and 69 % of initial value and 87 % of initial value in data set [4] (setting [20]). In addition, the “CBF (% of initial value), single experiments” value in data set [4] (setting [21]) was 68 % of initial value and 101 % of initial value and 83 % of initial value and 89 % of initial value and 94 % of initial value; in data set [4] (setting [22]) it was 97 % of initial value and 103 % of initial value and 99 % of initial value and 89 % of initial value and 94 % of initial value; in data set [4] (setting [23]) it was 100 % of initial value and 102 % of initial value and 103 % of initial value and 91 % of initial value and 92 % of initial value; in data set [4] (setting [24]), 102 % of initial value and 103 % of initial value and 94 % of initial value and 91 % of initial value; in data set [4] (setting [25]), 100 % of initial value; in data set [4] (setting [26]), 0 % of initial value. Also, the “CBF (% of initial value), single experiments” value in data set [4] (setting [27]), in data set [4] (setting [28]), in data set [4] (setting [29]), in data set [4] (setting [30]), in data set [4] (setting [31]) and in data set [4] (setting [32]) was 0 % of initial value in each case. Also, in data set [4] (setting [33]), the “CBF (% of initial value), single experiments” value is recorded as 0 % of initial value. In addition, the “reversibility of effect on CBF” value in data set [4] (10% propylene glycol) is “reversible”; in data set [4] (25% propylene glycol) it was “reversible”; in data set [4] (50% propylene glycol), “not reversible”. Also, in data set [4] (50% (v/v) propylene glycol, after 5-15 minutes contact), the cilia activity result is on record as “completely arrested”. The “effect on CBF after 15 minutes” value in data set [5] is on record as “strong decrease”.
Regarding `OCC(O)CO` [glycerol], in data set [5], the “effect on CBF after 15 minutes” value is on record as “strong decrease”.
For the compound `CN1CCc2cccc3c2[C@H]1Cc1ccc(O)c(O)c1-3` [Apomorphine HCl], the solubility was 15 mg/mL in data set [3] (solvent PEG 400, read-out: solubility in PEG 400); 20 mg/mL in data set [3] (setting [7]); 35 mg/mL in data set [3] (solvent glycerol, read-out: solubility in glycerol); 80 mg/mL in data set [3] (setting [8]). Moreover, the stability on storage entry is “not stable” in data set [6] (aqueous solutions) and “more stable” in data set [6] (non-aqueous solutions in propylene glycol, compared with aqueous).
